Data from US8337941B2, “Fluorescent substrates for monoamine transporters as optical false neurotransmitters” (The Trustees of Columbia University in the City of New York, priority 2006, dated 2012).
Entries after “also recorded” stand apart in the source; their conditions may differ. Where two headings read alike, the source gives them in different places.

Tests used:
[1] = photophysical characterization (fluorescence spectra); assay type: physicochemical; details: for λem / λex: 100 mM sodium phosphate pH 7.4, 10 uM probe; for pH dependency of fluorescence: spectra at pH 2, 5, 7.4, 9 and 12
Description: All spectra were recorded in 100 mM sodium phosphate (pH 7.4) unless otherwise indicated. Recorded λmax is that of the longest wavelength transition. Extinction coefficients were reported as the average of at least three independent preparations of the probes. Fluorescence measurements were taken on a Jobin Yvon Fluorolog fluorescence spectrofluorometer in 100 mM sodium phosphate pH 7.4 at a concentration of 10 uM in probe, excited at their respective λmax.

VMAT2 = target: T1, VMAT2 (Homo sapiens, UniProt Q05940); assay: in vitro competitive binding assay, membranes from HEK cells stably transfected with VMAT2; details: inhibition of binding to membranes from HEK cells stably transfected with VMAT2; read-out: apparent IC50
T1 construct: expressed in transfected cells; host or cells: HEK cells, stably transfected; membranes
From the text: On the basis of initial encouraging results, compound FFN 511 was submitted to rigorous investigation, from which it emerged as a promising imaging probe. Catecholamines are stored in chromaffin large dense core vesicles (LDCVs), which contain vesicular monoamine transporter 1 (VMAT1). Although VMAT 1 and 2 are distinct proteins, they share many functional characteristics.

chromaffin cells [2] = assay: probe uptake and labeling in chromaffin cells by fluorescence microscopy; assay type: cell-based, mouse
From the text: Chromaffin cells are an excellent model system as the cytoplasm of these cells in culture is almost completely filled with large dense core vesicles that accumulate catecholamines by VMAT.
If necessary, metabolism of the probes by MAO (present in mitochondria) may be reduced by the addition of a suitable inhibitor (deprenyl for MAO B, clorgyline for MAO A) or by simply methylating the α-position of the amine (10, 14).
Catecholamines are stored in chromaffin large dense core vesicles (LDCVs), which contain vesicular monoamine transporter 1 (VMAT1). Although VMAT 1 and 2 are distinct proteins, they share many functional characteristics.

chromaffin cells [3] = assay: TIRF assay of stimulation-dependent exocytosis from FFN 511-loaded chromaffin granules; assay type: cell-based, mouse; details: single LDCV
From the text: Total internal reflectance fluorescence microscopy (TIRF) was used as a functional assay for the ability of FFN 511-loaded chromaffin granules to undergo stimulation-dependent exocytosis. TIRF allows for fluorescence excitation in a narrow −100 nm thick layer of the cell immediately adjacent to the surface.

DA terminals = assay: labeling and destaining of DA terminals in live striatal acute slice; assay type: cell-based, mouse
From the text: Distribution of FFN 511 was compared to DA neurons using striatal slices prepared from a transgenic mouse expressing GFP under the control of tyrosine hydroxylase (TH) promoter (36).
As FFN 511 was applied in a “pulse-chase” pattern, with the extracellular probe washed out following accumulation in the terminals, these experiments essentially measure the amount of DA remaining in the terminal and the released transmitter. The probability of release from a given terminal under a particular stimulus condition is simply the fractional destaining, i.e., Pterminal=Ft/(Ft0−Fbkgnd) Pterminal=1−(Ft−Fbkg)/(Ft0−Fbkg),
where Ft0 is the initial fluorescent intensity and Fbkgnd is the label remaining after maximal stimulus is applied.

evoked DA release = evoked DA release in slice measured by cyclic voltammetry; assay type: cell-based, mouse
From the text: FFN 511 was destained by neuronal stimulation in a calcium-dependent manner under conditions identical to those that release DA as measured by simultaneous cyclic voltammetry. (FFN 511 is not oxidized and not measured by cyclic voltammetry).

[4] = 4 Hz stimulation, in the presence of calcium

T1 sequence (Q05940 whole entry, species assumed): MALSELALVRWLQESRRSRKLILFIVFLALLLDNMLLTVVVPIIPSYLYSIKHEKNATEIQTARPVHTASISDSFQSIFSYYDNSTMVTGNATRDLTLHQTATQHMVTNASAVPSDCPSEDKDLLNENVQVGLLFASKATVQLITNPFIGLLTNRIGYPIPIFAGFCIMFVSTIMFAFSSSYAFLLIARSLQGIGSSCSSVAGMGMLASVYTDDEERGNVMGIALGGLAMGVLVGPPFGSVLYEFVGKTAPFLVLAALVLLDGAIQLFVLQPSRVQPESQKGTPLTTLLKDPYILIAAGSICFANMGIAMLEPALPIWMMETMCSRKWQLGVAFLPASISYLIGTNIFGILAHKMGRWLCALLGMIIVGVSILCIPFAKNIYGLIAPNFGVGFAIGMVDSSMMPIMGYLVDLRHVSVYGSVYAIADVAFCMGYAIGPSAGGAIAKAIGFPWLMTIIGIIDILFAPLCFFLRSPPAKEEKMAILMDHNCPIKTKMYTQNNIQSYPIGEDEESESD

Q: With CCN(CC)c1ccc2c(C)cc(=O)oc2c1 [Coumarin 1, reference compound] as the compound, how does the “behaviour of fluorescence in water / aqueous buffer solution” value [1] read?
A: drops in water

Q: What about the λem [1] of the same compound?
A: 470 nm

Q: And the λex [1]?
A: 384 nm

Q: Which IC50 (VMAT2) does the source give for NCCc1ccc(O)c(O)c1 [DA, dopamine, reference compound] here?
A: ~1000 nM

Q: Which λem [1] does the source give for O=C(O)C(F)(F)F.O=c1cc(O)c2ccc(N3CCNCC3)cc2o1 [Probe 484, 4-(4—Hydroxy-coumarin-7-yl)-piperazin-1-ium trifluoroacetate] here?
A: 385 nm

Q: What about the λex [1] of the same compound?
A: 319 nm

Q: And the “pH dependency of fluorescence” value ([1]; trifluoroacetate)?
A: possess pH-dependency; also recorded: shift in fluorescence emission maxima seen with changing pH

Q: Which λem [1] does the source give for NCCNc1ccc2ccc(=O)oc2c1 [Probe 505, 7-(2-Amino-ethylamino)-coumarin] here?
A: 455 nm

Q: And the λex [1]?
A: 361 nm

Q: Which results are given for NCCc1cc(=O)oc2c3c4c(cc12)CCCN4CCC3 [Probe 511, 8-(2-Amino-ethyl)-2,3,5,6-tetrahydro-1H,4H-11-oxa-3a-aza-benzo[de]anthracen-10-one]?
A: IC50 (VMAT2): 2500 nM; labeling of chromaffin cells (chromaffin cells [2]): selectively label healthy chromaffin cells; duration of linear increase of intracellular probe concentration (fluorescence) (chromaffin cells [2]; 500 nM in physiological saline solution): at least 60 minutes; uptake into chromaffin vesicles (chromaffin cells [2]; At 50 nM): actively taken up into chromaffin vesicles; time window in which uptake is linear (chromaffin cells [2]; FFN 511 500 nM, single chromaffin cells): 10 to 60 min; accumulation in acidic compartments of the cells (chromaffin cells [2]; abolished by chloroquine exposure): accumulates in acidic compartments; fluorescence after addition of lipophilic weak base chloroquine (chromaffin cells [2]; chloroquine 100 μM): completely abolished; staining of cell nuclei (chromaffin cells [2]; chromaffin cells): nuclear exclusion; effect of VMAT inhibitor tetrabenazine on probe uptake (chromaffin cells [2]; chromaffin cells, TBZ 10 uM (FIG. 20), p=0.001 vs control): abolished by Tetrabenazine; also recorded: inhibited by tetrabenazene; release from LDCVs on high potassium stimulation (chromaffin cells [3]): released by exocytosis; number of action potentials to release about 50% of the terminal content (DA terminals; [4]): 640 action potentials; time to release about 50% of the terminal content (DA terminals; [4]): ~160 s; fluorescent labeling in corpus callosum (DA terminals; acute slices, mouse CNS): no labeling; fluorescent labeling in cortex (DA terminals; acute slices, mouse CNS): fainter fluorescence with patchy distribution; fluorescent labeling in striatum (DA terminals; acute slices, mouse CNS): clearly observed in presynaptic terminals; FFN 511 labeling after unilateral 6-OHDA lesion of DA neurons (DA terminals; injected hemisphere, slices 21 days post-lesion): nearly completely abolished; calcium dependence of stimulated destaining (DA terminals; neuronal stimulation): completely dependent on the presence of calcium; effect on evoked DA release at higher concentrations (evoked DA release): reduced evoked DA release; effect on evoked DA release at levels sufficient to label the terminals (evoked DA release): did not alter evoked DA release; emission maximum ([1]; compared with GFP): ~500 nm; pH dependency of fluorescence [1]: increased fluorescence seen at alkaline pH values

Q: For CN(C)c1ccc2cc3ccc(N(C)C)cc3nc2c1 [acridine orange, reference compound], which “behaviour of fluorescence in water / aqueous buffer solution” value [1] is on record?
A: drops in water

Q: With CC(N)Cc1ccccc1 (stereo not shown) [amphetamine, reference compound] as the compound, how does the “loss of 511 fluorescence” value (DA terminals; 10 μM, 10 min, striatal slice) read?
A: ~50%

Q: With COC(=O)[C@H]1[C@H]2C[C@@H]3c4[nH]c5cc(OC)ccc5c4CCN3C[C@H]2C[C@@H](OC(=O)c2cc(OC)c(OC)c(OC)c2)[C@@H]1OC [reserpine, reference compound] as the compound, how does the “inhibition of 511 labeling by VMAT2 inhibitors” value (DA terminals) read?
A: strongly inhibited

Q: For COc1cc2c(cc1OC)C1CC(=O)C(CC(C)C)CN1CC2 (stereo not shown) [tetrabenazine, reference compound], which “inhibition of 511 labeling by VMAT2 inhibitors” value (DA terminals; striatal slice, reserpine 10 μM, 2 hours (FIG. 36B)) is on record?
A: strongly inhibited
